Source: US8852883B2 (priority 2008, dated 2014)
“Also recorded” adds a separate entry of the source. Like-named read-outs stand apart in the source and are kept apart here. *: point of attachment. FITC = O=C1OC2(c3ccc(O)cc3Oc3cc(O)ccc32)c2ccc(NC(=S)*)cc21; Ahx = NCCCCCC(=O)O

How the values were obtained:
[1] = system: (virulent) B. anthracis-derived enzyme; format: biochemical, Bacillus anthracis
[2] = system: (virulent) B. anthracis-derived enzyme; format: biochemical, Bacillus anthracis; remark: listed apart in the source
[3] = system: B. thuringiensis-derived enzyme; format: biochemical
B. cereus = format: biochemical
B. thuringiensis = format: biochemical
[4] = system: P. aeruginosa-derived enzyme; format: biochemical, Pseudomonas aeruginosa
[5] = system: currently used micro-organisms; format: biochemical
lysostaphin = target: T1, lysostaphin (Staphylococcus simulans, UniProt P10547); format: biochemical
T1 construct: purchased Sigma

[6] = system: currently used micro-organisms; format: biochemical; remark: listed apart in the source
[7] = system: enzymes derived from V. cholerae; format: biochemical
[8] = system: enzymes derived from B. globigii; format: biochemical
[9] = target: Anthrax Lethal Factor (LF) (Bacillus anthracis, UniProt P15917); format: biochemical
Thermolysin = target: T2, Thermolysin (Bacillus thermoproteolyticus, UniProt P00800); format: biochemical
T2 construct: purchased Sigma
T2 sequence (P00800 233-548): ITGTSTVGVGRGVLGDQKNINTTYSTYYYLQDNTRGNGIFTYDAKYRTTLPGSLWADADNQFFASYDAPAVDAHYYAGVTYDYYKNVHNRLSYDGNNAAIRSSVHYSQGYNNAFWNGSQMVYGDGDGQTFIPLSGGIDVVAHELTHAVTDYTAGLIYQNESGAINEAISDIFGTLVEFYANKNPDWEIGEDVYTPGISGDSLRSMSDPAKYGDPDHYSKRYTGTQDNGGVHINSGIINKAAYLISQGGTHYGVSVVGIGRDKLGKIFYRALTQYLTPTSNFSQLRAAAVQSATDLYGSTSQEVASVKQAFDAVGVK

Collagenase Clostridium = format: biochemical, Clostridium sp.
[10] = system: Collagenase Vibrio/Dispase; format: biochemical, Vibrio sp
B. cereus cells = format: cell-based; details: for Location of fluorescent BikKam1 fragments (fluorescence microscopy): 0.01 M BikKam1
[11] = system: enzymes derived from C. botulinum; format: biochemical
[12] = system: enzymes derived from E. herbicola; format: biochemical
[13] = system: V. cholerae-derived enzyme; format: biochemical

T1 sequence (P10547 248-493, species assumed): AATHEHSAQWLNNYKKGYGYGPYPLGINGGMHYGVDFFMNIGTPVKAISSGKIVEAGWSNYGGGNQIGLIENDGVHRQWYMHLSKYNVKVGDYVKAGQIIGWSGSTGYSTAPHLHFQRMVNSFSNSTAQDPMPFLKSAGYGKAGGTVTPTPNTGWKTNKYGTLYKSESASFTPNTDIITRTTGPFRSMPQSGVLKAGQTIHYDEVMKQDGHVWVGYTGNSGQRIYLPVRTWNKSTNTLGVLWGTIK
Sequence of Anthrax Lethal Factor (LF) (P15917 34-809 limits assumed): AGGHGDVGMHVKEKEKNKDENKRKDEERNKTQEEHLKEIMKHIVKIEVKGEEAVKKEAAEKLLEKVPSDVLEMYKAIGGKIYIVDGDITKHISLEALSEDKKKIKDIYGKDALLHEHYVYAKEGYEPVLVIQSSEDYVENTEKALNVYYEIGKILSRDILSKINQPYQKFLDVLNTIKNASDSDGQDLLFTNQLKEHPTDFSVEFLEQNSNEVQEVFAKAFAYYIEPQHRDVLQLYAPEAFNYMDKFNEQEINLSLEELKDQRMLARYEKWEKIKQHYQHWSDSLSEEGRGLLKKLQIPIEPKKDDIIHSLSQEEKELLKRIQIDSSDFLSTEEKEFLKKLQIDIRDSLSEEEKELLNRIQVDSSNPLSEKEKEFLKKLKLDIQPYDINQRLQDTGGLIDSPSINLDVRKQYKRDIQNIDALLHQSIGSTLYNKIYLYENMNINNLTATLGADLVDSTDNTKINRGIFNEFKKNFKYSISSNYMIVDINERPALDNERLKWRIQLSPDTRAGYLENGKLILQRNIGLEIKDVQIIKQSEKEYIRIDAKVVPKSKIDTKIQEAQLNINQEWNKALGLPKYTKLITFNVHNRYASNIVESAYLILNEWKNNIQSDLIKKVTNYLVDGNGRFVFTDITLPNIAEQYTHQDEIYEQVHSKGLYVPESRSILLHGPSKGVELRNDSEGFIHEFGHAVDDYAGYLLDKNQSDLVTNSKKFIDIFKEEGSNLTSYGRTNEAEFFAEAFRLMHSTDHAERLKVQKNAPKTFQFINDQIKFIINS

FITC-Ahx-DLeu-DLeu-Lys-DABCYL [BikKam4]
Fluorescent signal of FRET: cleavage of substrate by B. anthracis-derived enzyme [1]: specifically cleaved | Fluorescent signal of FRET: cleavage of substrate by B. anthracis-derived enzyme [2]: specifically cleaved | Fluorescent signal of FRET: cleavage of substrate by B. thuringiensis-derived enzyme [3]: specifically cleaved

FITC-Ahx-DLeu-Leu-Lys-DABCYL [BikKam2]
Fluorescent signal of FRET: cleavage of substrate by B. anthracis-derived enzyme [1]: specifically cleaved | Fluorescent signal of FRET: cleavage of substrate by B. cereus (B. cereus): weak signal | Fluorescent signal of FRET: cleavage of substrate by B. thuringiensis (B. thuringiensis): weak signal | Fluorescent signal of FRET: cleavage of substrate by B. anthracis-derived enzyme [2]: specifically cleaved | Fluorescent signal of FRET: cleavage of substrate by B. thuringiensis-derived enzyme [3]: specifically cleaved

FITC-Ahx-Gly-DABCYL [BikKam24]
Fluorescent signal of FRET: cleavage of substrate by P. aeruginosa-derived enzyme [4]: no P. aeruginosa activity | Enzyme activity on substrate with the currently used micro-organisms [5]: No significant enzyme activity | Cleavage of substrate by lysostaphin (lysostaphin): No significant enzyme activity

FITC-Ahx-Gly-DAla-Lys-DABCYL [BikKam8]
Enzyme activity on substrate with the currently used micro-organisms [5]: No significant enzyme activity | Enzyme activity on substrate with the currently used micro-organisms [6]: No significant enzyme activity

FITC-Ahx-Gly-DLeu-Lys-DABCYL [BikKam7]
Fluorescent signal of FRET: cleavage of substrate by B. anthracis-derived enzyme [1]: specifically cleaved | Fluorescent signal of FRET: cleavage of substrate by B. thuringiensis (B. thuringiensis): weak signal | Fluorescent signal of FRET: cleavage of substrate by B. anthracis-derived enzyme [2]: specifically cleaved

FITC-Ahx-Gly-Gly-DABCYL [BikKam23]
Activity for P. aeruginosa compared to the other BikKam20-24 substrates [4]: lower than BikKam20-BikKam22; also recorded: significant decrease in activity; also recorded: lower activity | Fluorescent signal of FRET: cleavage of substrate by P. aeruginosa-derived enzyme [4]: specifically cleaved | Cleavage of substrate by lysostaphin (lysostaphin): not cleaved; also recorded: does not interact

FITC-Ahx-Gly-Gly-Gly-DABCYL [BikKam22]
Activity for P. aeruginosa compared to the other BikKam20-24 substrates [4]: slight increase in activity; also recorded: increase in cleavage | Fluorescent signal of FRET: cleavage of substrate by P. aeruginosa-derived enzyme [4]: specifically cleaved | Cleavage of substrate by lysostaphin (lysostaphin): somewhat cleavage

FITC-Ahx-Gly-Gly-Gly-Gly-DABCYL ({FITC-Ahx}-GGGG-{DABCYL}) [BikKam21]
Activity for P. aeruginosa compared to the other BikKam20-24 substrates [4]: slight increase in activity | Cleavage of substrate by lysostaphin (lysostaphin): specifically cleaved

FITC-Ahx-Gly-Gly-Gly-Gly-Gly-DABCYL [BikKam20]
Activity for P. aeruginosa compared to the other BikKam20-24 substrates [4]: increase in cleavage | Fluorescent signal of FRET: cleavage of substrate by P. aeruginosa-derived enzyme [4]: specifically cleaved | Cleavage of substrate by lysostaphin (lysostaphin): specifically cleaved

FITC-Ahx-Leu-DLeu-Leu-Lys-DABCYL [BikKam5]
Fluorescent signal of FRET: cleavage of substrate by B. anthracis-derived enzyme [1]: specifically cleaved | Fluorescent signal of FRET: cleavage of substrate by V. cholerae [7]: Some cleavage | Fluorescent signal of FRET: cleavage of substrate by B. anthracis-derived enzyme [2]: specifically cleaved | Fluorescent signal of FRET: cleavage of substrate by B. thuringiensis-derived enzyme [3]: Some weak activity

FITC-Ahx-Leu-DLeu-Lys-DABCYL [BikKam1]
Fluorescent signal of FRET: cleavage of substrate by B. anthracis-derived enzyme [1]: specifically cleaved | Fluorescent signal of FRET: cleavage of substrate by B. globigii [8]: not capable of cleaving | Fluorescent signal of FRET: cleavage of substrate by B. anthracis-derived enzyme [2]: specifically cleaved | Fluorescent signal of FRET: cleavage of substrate by B. thuringiensis-derived enzyme [3]: Some weak activity | FRET signal with purified Lethal Factor [9]: No signal | FRET signal with purified thermolysin (Thermolysin): No signal | FRET signal with purified collagenase (Clostridium sp.) (Collagenase Clostridium): No signal | FRET signal with purified collagenase (Vibrio sp) [10]: No signal | Fluorescent bacteria (fluorescence microscopy) (B. cereus cells; 0 hr): no fluorescent bacteria could be detected | Location of fluorescent BikKam1 fragments (fluorescence microscopy) (B. cereus cells; B. cereus, 2 hr incubation): could be detected in the cytoplasm | Location of fluorescent BikKam1 fragments (fluorescence microscopy) (B. cereus cells; B. cereus, 4 hr): besides in the cytoplasm also present in the cell wall at the new division sides | Location of fluorescent BikKam1 fragments (fluorescence microscopy) (B. cereus cells; B. cereus, 16 hr incubation): moved from the cytoplasm to the side walls | Fluorescent BikKam1 fragments in bacteria (fluorescence microscopy) (B. cereus cells; B. cereus, time not stated): Detection of fluorescent BikKam1 fragments in the cytoplasm

FITC-Ahx-Leu-DVal-Lys-DABCYL [BikKam6]
Background with bacteria other than (virulent) B. anthracis [6]: hardly revealed any background | Background with other bacteria than (virulent) B. anthracis ([6]; at 60 min): Some weak background

FITC-Ahx-Leu-Leu-Lys-DABCYL [BikKam3]
Fluorescent signal of FRET: cleavage of substrate by B. globigii [8]: show activity | Fluorescent signal of FRET: cleavage of substrate by C. botulinum [11]: show activity | Fluorescent signal of FRET: cleavage of substrate by V. cholerae [7]: show activity | Fluorescent signal of FRET: cleavage of substrate by E. herbicola [12]: show activity | Fluorescent signal of FRET: cleavage of substrate by B. thuringiensis-derived enzyme [3]: specifically cleaved | Fluorescent signal of FRET: cleavage of substrate by V. cholerae-derived enzyme [13]: specifically cleaved

FITC-Ahx-Pro-Hyp-Lys-DABCYL [BikKam9]
Enzyme activity on substrate with the currently used micro-organisms [5]: No significant enzyme activity | Enzyme activity on substrate with the currently used micro-organisms [6]: No significant enzyme activity
